Reference: the supplement of paper PMC10949913

Assays:
Test in all cases: area under concentration-response curve (viability) (AUC (a.u.)); higher = less active
Details in all cases: 48 h
CU-ACC2 = system: CU-ACC2
Summary of the method: (§1)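 In 1,536-well plates, 500–1,000 cells/well of three adrenocortical carcinoma cell lines in 5 µL medium received 23 nL of each library compound across 11 concentrations. At 48 h, CellTiter-Glo was incubated for 15 minutes at room temperature and luminescence measured. Per-plate normalisation used vehicle and empty-well controls, and only inhibitory or non-responding curve classes were kept when fitting concentration-response curves for AC50 and area under the curve.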

NCI-H295R = system: NCI-H295R
Summary of the method: as §1

CU-ACC1 = system: CU-ACC1
Summary of the method: as §1

| SMILES | area under concentration-response curve (CU-ACC2) | area under concentration-response curve (NCI-H295R) | area under concentration-response curve (CU-ACC1) |
| --- | --- | --- | --- |
| CC[C@@H](C(N)=O)N1CCCC1=O | 520 | 545 | 532 |
| CC1(C)CCC(=C(\C1)C2=CC=C(Cl)C=C2)/CN3CCN(CC3)C4=CC(=C(C=C4)C(=O)N[S+]([O-])(=O)C5=CC=C(NCC6CCOCC6)C(=C5)[N+]([O-])=O)OC7=CN=C8[NH]C=CC8=C7 | 573 | 478 | 511 |
| COc1ccc([S+](=O)([O-])NCc2ccc(C(=O)NCCc3ccc(Cl)cn3)cc2)cc1 | 654 | 614 | 565 |
| CCC/1=C/C2=C(C(=O)N1CC(=O)C3=CC=CC=C3)C(=C([N]2C)C(=O)NC4CCN(CC4)C(=O)CO)OCC(F)(F)F | 642 | 594 | 572 |
| CC1(C)Cc2c(-c3ccccc3)c(-c3ccc(Cl)cc3)c(CC(=O)O)n2C1 | 559 | 516 | 475 |
| CC[S+](=O)([O-])c1ccc2oc(-c3ccc4ccccc4c3)nc2c1 | 602 | 514 | 538 |
| O=C(c1c(F)ccc(N[S+](=O)([O-])N2CC[C@@H](F)C2)c1F)c1c[nH]c2ncc(-c3cnc(C4CC4)nc3)cc12 | 574 | 474 | 470 |
| C[C@H](O)[C@H]1[C@@H]2[C@H](C)C(=C(\N2C1=O)C(O)=O)/S[C@@H]3CN[C@H](CN[S+](N)([O-])=O)C3 | 643 | 578 | 516 |
| CC1(C)CC[C@@]2(CC[C@]3(C)\C(=C/C[C@@H]4[C@@]5(C)C[C@@H](O)[C@H](O)C(C)(C)[C@@H]5CC[C@@]34C)[C@@H]2C1)C(O)=O | 574 | 531 | 478 |
| CC1COC2(CCN(CC2)C/3=N/C(=O)C4=CC(=CC(=C4S3)[N+]([O-])=O)C(F)(F)F)O1 (configuration not stated) | 472 | 462 | 416 |
| C[C@@H]1COCCN1C\2=C\C(=O)N\3CC[C@H](N(CC4=CN=CC(=C4)Cl)C3=N2)C(F)(F)F | 661 | 590 | 550 |
| COC1=C(F)C=C\2C(=C1)\N=C/3NNC(=C3\N=C2C4=CC=CC=C4Cl)/C | 528 | 552 | 538 |
| O=C(O)c1ccc(CN2CCC(CN[C@@H]3C[C@H]3c3ccccc3)CC2)cc1 | 540 | 490 | 465 |
| CN[C@@H](C)C(=O)N[C@H](C(=O)N1CCC[C@H]1c1nc(C(=O)c2ccc(F)cc2)cs1)C1CCCCC1 | 571 | 546 | 525 |
| CC\1=C(C(\N=C(/N1)C2=CC(=NC=C2)Cl)C3=C(F)C=C(Cl)C=C3)/C(=O)NC4=C(F)C=C5[NH]N=CC5=C4 (configuration not stated) | 466 | 488 | 492 |
| COC[C@@H](NC(C)=O)C(=O)NCc1ccccc1 | 619 | 560 | 503 |
| CCC1(c2ccc(N)cc2)CCC(=O)NC1=O (configuration not stated) | 631 | 568 | 591 |
| CC(=O)O[C@H]1C[C@@H]2CC[C@@H]3[C@H](CC[C@@]4(C)[C@H]3C[C@H]([N+]3(C)CCCCC3)[C@@H]4OC(C)=O)[C@@]2(C)C[C@@H]1[N+]1(C)CCCCC1 | 584 | 505 | 501 |
| CC1(C)[C@@H](O[C@H]2O[C@H](C(=O)O)[C@@H](O)[C@H](O)[C@H]2O[C@@H]2O[C@H](C(=O)O)[C@@H](O)[C@H](O)[C@H]2O)CC[C@]2(C)[C@H]3C(=O)C=C4[C@@H]5C[C@@](C)(C(=O)O)CC[C@]5(C)CC[C@@]4(C)[C@]3(C)CC[C@@H]12 | 522 | 567 | 541 |
| N#Cc1ccc(N(Cc2ccc(Br)cc2)n2cnnc2)cc1 | 633 | 598 | 413 |
| OC(=O)C(CC/1=C/C(=O)NC2=CC=CC=C12)NC(=O)C3=CC=C(Cl)C=C3 (configuration not stated) | 610 | 483 | 521 |
| Nc1ncnc2c1ncn2[C@@H]1O[C@H](CO)[C@@H](O)[C@H]1O | 506 | 470 | 463 |

| SMILES | area under concentration-response curve (CU-ACC2) | area under concentration-response curve (NCI-H295R) | area under concentration-response curve (CU-ACC1) |
| --- | --- | --- | --- |
| CN[C@@H](C)C(=O)N[C@H]1CN(C(=O)CC(C)C)CC[C@H]2CC[C@@H](C(=O)NC(c3ccccc3)c3ccccc3)N2C1=O | 372 | 420 | 338 |
| CN1[C@@H]2CCC[C@H]1CC(NC(=O)c1nn(C)c3ccccc13)C2 (some centres not stated) | 584 | 490 | 511 |
| COc1ccc(C(=O)N2CCN(c3ccc4c(c3)CCC(=O)N4)CC2)cc1OC | 562 | 554 | 458 |
| Cc1cc(O)c2c(c1)C(=O)c1cc(O)cc(O)c1C2=O | 521 | 498 | 471 |
| C[C@](Cc1c[nH]c2ccccc12)(NC(=O)OC1C2CC3CC(C2)CC1C3)C(=O)NC[C@H](NC(=O)CCC(=O)O)c1ccccc1 (some centres not stated) | 582 | 537 | 510 |
| N[S+](=O)([O-])c1cc(Cl)c(Cl)c([S+](N)(=O)[O-])c1 | 528 | 524 | 459 |
| COC/1=C/C=C2\C(=C/C1=O)[C@H](CCC3=CC(=C(OC)C(=C23)OC)OC)NC(C)=O | 548 | 480 | 536 |
| C[C@H](CCC(=O)O)[C@H]1CCC2C3C[C@H](O)[C@@H]4C[C@H](O)CC[C@]4(C)C3CC[C@@]21C (some centres not stated) | 501 | 470 | 454 |
| OC[C@H]1O[C@H](C[C@@H]1O)N2\C=C(\I)C(=O)NC2=O | 543 | 501 | 496 |
| Cn1cc(-c2ccc3ncc(Cc4ccc5ncccc5c4)n3n2)cn1 | 545 | 497 | 450 |
| O=C1\C=C/C=C2/[C@H]3CNC[C@H](C3)CN12 | 663 | 576 | 593 |
| NCCCC(O)(P(=O)([O-])O)P(=O)(O)O | 529 | 472 | 511 |
| CC(C)C1CCC(C(=O)N[C@H](Cc2ccccc2)C(=O)O)CC1 (some centres not stated) | 652 | 599 | 551 |
| CN(C)C(=O)COC(=O)Cc1ccc(OC(=O)c2ccc(NC(=N)N)cc2)cc1 | 564 | 541 | 464 |
| CCOc1cc(/C=C2/C(=O)N(c3ccccc3)N=C2C)cc(Cl)c1OCC(=O)OC | 664 | 590 | 587 |
| O=C(NCC[S+](=O)([O-])c1ccc(C(F)(F)F)cn1)c1ccc(Cl)cc1 | 580 | 544 | 520 |
| CC(C)CC(=O)N[C@H](C(=O)N[C@H](C(=O)N[C@@H](CC(C)C)[C@@H](O)CC(=O)N[C@@H](C)C(=O)N[C@@H](CC(C)C)[C@@H](O)CC(=O)O)C(C)C)C(C)C | 538 | 485 | 537 |
| Oc1ccc(-c2nc(-c3ccncc3)c(-c3ccc(F)cc3)[nH]2)cc1 | 574 | 475 | 493 |
| O=C(Nc1ccc(-c2ccnc(Nc3ccc(N4CCOCC4)cc3)n2)cc1)C1CCCN1 (configuration not stated) | 601 | 553 | 501 |
| O=C(O)c1ccccc1-c1ccc(/C=c2\sc3nc4cc(Br)cnc4n3c2=O)o1 | 457 | 549 | 491 |
| COc1ccc([C@@H](O)[C@@H](C)Oc2ccc([C@H]3O[C@H](c4ccc(O[C@H](C)[C@H](O)c5ccc(OC)c(OC)c5)c(OC)c4)[C@H](C)[C@H]3C)cc2OC)cc1OC | 575 | 479 | 269 |
| NC\1=N\C(=O)N(\C=N1)[C@H]2C[C@H](O)[C@@H](CO)O2 | 588 | 484 | 500 |
